From patent US6020316A, “Glutaraldehyde modified chemotherapeutic agents and methods of use thereof” (priority 1998, dated 2000)

Legend:
tumor cell = test: Antitumor cell activity of DOX modified with other aldehydes and crosslinking agents; assay type: cell-based; settings: substituted for glutaraldehyde in the basic modification protocol
Procedure: Other aldehydes and crosslinking agents that were substituted for glutaraldehyde in the basic modification protocol included acetaldehyde, butyraldehyde, hexanal, formaldehyde, succinyl chloride, glutaryl dichloride (all from Aldrich Chemical Co., Milwaukee, Wis.), DSG (disuccinimidyl glutarate), DMS (dimethylsuberimidate), and BS^3 (last three compounds from Pierce Chemical Co., Rockford, Ill.).
(§1) Cells from the stock cultures were plated in 35 mm plastic tissue culture dishes at a density of 1×10^5 /cm^2. After 1 to 2 days, when the monolayer had reached a final density of 2-3×10^5 /cm^2, the cultures were washed twice with Dulbecco's phosphate-buffered saline and 2 ml of serum-free DMEM was added. […] After incubation for 3 hours at 37° C. in 10% CO2, the dishes were rinsed twice with phosphate-buffered saline (pH 7.4) to remove extracellular drugs, trypsinized, and plated for determination of clonogenic survival. Trypsinization involved dispersal of cells with 0.25% trypsin, followed by culture in DMEM plus 10% newborn calf serum for 7 days. Plates were examined after staining with methylene blue, and clones containing more than 10 cells were counted. The surviving fraction was the ratio of the plating efficiency of the cultures exposed to DOX divided by the plating efficiency of control cultures maintained in a medium of the same composition. Plating efficiency is defined as the number of colonies formed divided by the number of cells plated.

L929 cells = test: Fluorescence uptake and localization of DOX and GLU-DOX in L929 cells; assay type: cell-based, murine
Procedure: Cells were grown on 25 mm diameter microscope cover slips (Thomas, Sweedsboro, N.J.) in 35 mm tissue culture dishes. […] The wells were then rinsed two times with phosphate buffered saline and changed to fresh medium. After incubation for 0 h or 2 h, the cover slips were extracted from the plates, rinsed with PBS, mounted in an Attofluor cell chamber (Molecular Probes, Inc. Eugene, Oreg.), and examined by epifluorescence using a Zeiss microscope equipped with a 63× immersion oil objective. The combination of G546 excitation filer, FT580 dichroic mirror, and LP590 emission filter allowed efficient detection of doxorubicin fluorescence at 590 nm. The fluorescence was detected by a CCD72S camera (Dage-MTI, Inc, Michigan City, Ind.) and images were acquired and analyzed using OPTIMAS software (Optimas Corp., Seattle, Wash.). […] Area (A) per fluorescent image, i.e., per cell, and mean gray per image (MI) were measured for at least 20 cells. Mean gray for a background area containing no cell images (MB) was also determined. Fluorescence units (F.U.) per cell were calculated as: [formula]

[1] = test system: HTB (bladder transitional cell carcinoma); test: Clonogenic survival of human bladder transitional cell carcinoma cells; assay type: cell-based; settings: FIG. 3A
Procedure: (§2) The murine L929 cell line, a human breast adenocarcinoma cell line (MCF-7) and a human bladder transitional cell carcinoma cell line (RT-4) were used to test the compounds of the present invention. All cell lines were obtained from MA Bioproducts (Bethesda, Md.) and were routinely maintained in high-glucose Dulbecco's Modified Eagle's Minimum Essential Medium (DMEM) and 10% newborn calf serum (L929) or 10% fetal calf serum (MCF-7 and RT-4). A DOX-resistant cell line, L929/DOX, was prepared by treating the L929 cell line with gradually increasing concentrations of DOX in vitro until a cell line that grew at a concentration of 50 μg/ml DOX was attained. A resistant subclone was then treated once with 100 μg/ml of DOX. The surviving resistant population was used in subsequent experiments. The L929/DOX cells were maintained in DMEM medium supplemented with 10% fetal calf serum and lacking DOX.
(§3) Cells from the stock cultures were plated in 35 mm plastic tissue culture dishes at a density of 1×10^5 /cm^2. After 1 to 2 days, when the monolayer had reached a final density of 2-3×10^5 /cm^2, the cultures were washed twice with Dulbecco's phosphate-buffered saline and 2 ml of serum-free DMEM was added. […] Plates were examined after staining with methylene blue, and clones containing more than 10 cells were counted. […]

[2] = test system: MCF-7 (breast adenocarcinoma); test: Clonogenic survival of human breast adenocarcinoma cells; assay type: cell-based; settings: FIG. 3B
Procedure: as §2, §3

HLC (lung carcinoma) = test: Clonogenic survival of human lung carcinoma cells; assay type: cell-based; settings: FIG. 3C
Procedure: as §1

L929/DOX cells = test: Drug efflux from L929/DOX cells versus wild type cells; assay type: cell-based, murine
Source text: The surviving resistant population was used in subsequent experiments.

Molecule: CCCCCC=O [hexanal]
- antitumor cell activity of the DOX reaction product relative to DOX (tumor cell): None of these compounds, when reacted with DOX, produced a derivative with increased antitumor cell activity relative to DOX

Molecule: acetaldehyde
- antitumor cell activity of the DOX reaction product relative to DOX (tumor cell): None of these compounds, when reacted with DOX, produced a derivative with increased antitumor cell activity relative to DOX

Molecule: COC(=O)c1ccccc1-c1c2ccc(=N)cc-2oc2cc(N)ccc12 [rhodamine 123]
- intracellular localization compared with rhodamine 123 (L929 cells; 2 h exposure, GLU-DOX (100:1) 5 μg/ml, rhodamine 123 10 μg/ml, FIGS. 5A, 5B): strikingly similar

Molecule: COc1cccc2c1C(=O)c1c(O)c3c(c(O)c1C2=O)C[C@@](O)(C(=O)CO)C[C@@H]3O[C@H]1C[C@H](N)[C@H](O)[C@H](C)O1 [DOX, doxorubicin]
- sensitivity to DOX [1]: relatively insensitive
- sensitivity to DOX [2]: relatively insensitive
- sensitivity to DOX (HLC (lung carcinoma)): relatively insensitive
- Uptake: Mean Fluorescence Units per Cell (L929 cells; 5 μg/ml, 3 h at 37° C.): 124 ± 29 Fluorescence Units per Cell
- Uptake: Mean Fluorescence Units per Cell (L929 cells; 5 μg/ml, 3 h at 37° C. + 2 h chase): 18 ± 6 Fluorescence Units per Cell
- fluorescence after chase in drug-free medium (L929 cells; 2 hr chase, FIGS. 4B, 4D): nearly all DOX was lost from the cytoplasmic compartment although some nuclear fluorescence was still detectable
- subcellular distribution of fluorescence (L929 cells; 3 h exposure, 5 μg/ml, FIGS. 4A, 4C): in both nucleus and cytoplasm with distinct paranuclear concentration in some cells
- drug efflux from L929/DOX relative to wild type cells (L929/DOX cells): pumped out of the L929/DOX cells much faster than out of the wild type cells

Molecule: formaldehyde
- antitumor cell activity of the DOX reaction product relative to DOX (tumor cell): None of these compounds, when reacted with DOX, produced a derivative with increased antitumor cell activity relative to DOX

Molecule: O=C(Cl)CCC(=O)Cl [succinyl chloride]
- antitumor cell activity of the DOX reaction product relative to DOX (tumor cell): None of these compounds, when reacted with DOX, produced a derivative with increased antitumor cell activity relative to DOX

Molecule: glutaryl dichloride
- antitumor cell activity of the DOX reaction product relative to DOX (tumor cell): None of these compounds, when reacted with DOX, produced a derivative with increased antitumor cell activity relative to DOX

Molecule: butyraldehyde
- antitumor cell activity of the DOX reaction product relative to DOX (tumor cell): None of these compounds, when reacted with DOX, produced a derivative with increased antitumor cell activity relative to DOX
